Measured values reported in patent US12453712B2, “Antitumoral use of cabazitaxel” (Sanofi Mature IP, priority 2009, dated 2025).

Test system: castration resistant metastatic prostate cancer
Test: Randomized clinical study of cabazitaxel vs mitoxantrone, each with prednisone or prednisolone: efficacy
Assay type: in vivo, human
Method: A clinical study was performed wherein patients received either treatment with cabazitaxel or the reference treatment based on mitoxantrone each combined with prednisone or prednisolone.
More specifically, patients over 18 years of age with metastatic castration resistant metastatic prostate cancer either measurable by RECIST criteria or non-measurable disease with rising PSA levels or appearance of new lesions, ECOG (Eastern Cooperative Oncology Group) performance stage 0-2, and adequate organ function (patients had to have neutrophils >1,500 cells/mm^3, platelets >100,000 cells/mm^3, hemoglobin >10 g/dL, creatinine <1.5×upper limit of normal (ULN), total bilirubin <1×ULN, AST <1.5×ULN, and ALT <1.5×ULN) who had had prior hormone therapy, chemotherapy, and radiotherapy, but had progressive during or after docetaxel treatment (cumulative dose ≥225 mg/m^2) were randomized to 10 mg/day of prednisone with either mitoxantrone 12 mg/m^2 or cabazitaxel 25 mg/m^2, both administered every 3 weeks.
Patients with a history of congestive heart failure, or myocardial infarction within the last 6 months, or patients with uncontrolled cardiac arrhythmias, angina pectoris, and/or hypertension were not included in the study.
720 patients were planned to be included in the clinical study: 360 in each cabazitaxel+prednisone and mitoxantrone+prednisone group. Seven hundred and fifty-five patients (755) (median age 68; 84% white) were actually enrolled, 378 in the cabazitaxel and prednisone/prednisolone group and 377 in the mitoxantrone and prednisone/prednisolone group. The maximal number of treatment cycles was 10 for cabazitaxel and 10 for mitoxantrone. The median number of treatment cycles was 6 for cabazitaxel and 4 for mitoxantrone. The median prior dose of docetaxel treatment was 576 mg/m^2 for the cabazitaxel group and 529 mg/m^2 for the mitoxantrone group. Median follow-up was 12.8 months.
The measurements of the results are performed via the same tests as at inclusion. MRI and spiral computed tomographic (CT) scans are preferably used.
The results are evaluated according to the following criteria (cf RECIST guideline): • overall survival (OS): the time from inclusion to the study to the date of death complete response (CR): disappearance of the lesions • partial response (PR): at least 30% reduction of the largest diameter of the lesion progression (PD): at least 20% increase in the sum of the largest diameter of the lesion or appearance of one or more new lesions • stable disease (SD): reduction of the tumour insufficient to be included in PR and increase of the tumour insufficient to be included in PD.
The confirmations of the measurements are made at least 4 weeks after the response criterion has been established for the first time.
The progression-free survival (PFS) is the time from inclusion in the study and the date of progression or death when the progression is either an increase of the PSA, or of the tumour, or of the pain.

For `CO[C@H]1C(=O)[C@]2(C)[C@@H](OC)C[C@H]3OC[C@@]3(OC(C)=O)[C@H]2[C@H](OC(=O)c2ccccc2)[C@]2(O)C[C@H](OC(=O)[C@H](O)[C@@H](NC(=O)OC(C)(C)C)c3ccccc3)C(C)=C1C2(C)C` [cabazitaxel, 4α-acetoxy-2α-benzoyloxy-5β,20-epoxy-1β-hydroxy-7β,10β-dimethoxy-9-oxo-11-taxen-13α-yl (2R,3S)-3-tert-butoxycarbonyl-amino-2-hydroxy-3-phenylpropionate], the “Overall survival Hazard ratio (95% CI)” value (CbzP vs MP, intention-to-treat) was 0.70, the “PFS Hazard ratio (95% CI)” value (CbzP vs MP, intention-to-treat) was 0.74 and the “reduction in risk of death” value (cabazitaxel vs mitoxantrone, corresponding to hazard ratio 0.70) was 30%. For the same compound, the “Discontinuation of study treatment for disease progression, (%)” value (intention-to-treat) was “(47.6) %”, the “Discontinuation of study treatment for disease progression, no.” value (intention-to-treat, N = 377 mitoxantrone, N = 378 cabazitaxel) was 180 and the “Overall survival Median” value (intention-to-treat, 25 mg/m^2 cabazitaxel or 12 mg/m^2 mitoxantrone every 3 weeks with prednisone) was 15.1 months. The “PFS Median” value (intention-to-treat, earliest progression in tumor, PSA or pain) was 2.8 months.
